Data published in publication PMC6270976, “Pharmacokinetic Study in Mice of Galphimine-A, an Anxiolytic Compound from Galphimia glauca” (Molecules, 2014).
Like-named read-outs stand apart in the source and are kept apart here.

Test: Plasma pharmacokinetics of G–A after a single oral dose in ICR mice (HPLC, PKSolver)
Assay type: in vivo
Parameters: t1/2ka (absorption half time): unit not given here
Details: for AUC(0-inf) / Cmax / Tmax / AUC(0-t) / CL/F / MRT / Vd/F / k el: ICR, po, 200 mg/kg; for AUC(0-t): read-out: AUC0-1440 min (converted); for CL/F: read-out: CL/F (apparent clearance); for MRT: read-out: MRT (mean residence time) (converted); for Vd/F: read-out: V/F (apparent volume of distribution)
Description: Eighty-eight mice were randomly divided into 11 groups with eight individuals each. All animals were orally administered with 200 mg/kg of G–A dissolved in 5% β-cyclodextrin solution. Under ether-induced anesthesia, blood samples were obtained from the retroorbital sinus with heparinized cannula at different times (0, 5, 10, 15, 30, 60, 120, 240, 480, 720, and 1,440 min) after G–A administration. The volume of the blood samples was of 700 to 1000 microliters, which were collected in heparinized centrifuge microtubes, after the blood was centrifuged for 5 min at 1,720 × g.
Plasma samples were frozen at −70 °C, and lyophilized after. The obtained dry product was used to extract and measure the amount of G–A. After obtaining blood samples, all animals were perfused with isotonic saline solution (ISS) via cardiac puncture; the femoral vein was used to eliminate the perfusion liquid, until it appeared clear. Subsequently, the brain was removed. The brains were weighed fresh and frozen at −70 °C and then lyophilized. Once dry, the brains were weighed again to determine the volume of water contained in each brain. Dry tissue was ground in a mortar, and G–A was later extracted.
Dry pulverized samples (plasma and brain) were extracted with methanol (HPLC grade, Merck). The extracts were filtered with a 0.45 μm, 13 mm Teflon membrane (Millex®-LCR), and 20 μL of filtrate were injected into the HPLC equipment. Measurements were performed in a Waters 2695 HPLC, with diode array detector (Waters 2996) and the Empower Pro 1.0 software. A Chromolith Performance® RP-18e 100 × 4.6 mm (Merck KGaA Darmstadt, Germany) was used. The mobile phase consisted of a mixture of acetonitrile:water (55:45, 1 mL/min). G–A concentration was obtained by comparison with a pre-built calibration curve at λ = 220 nm.
To evaluate the suitability of the assay for pharmacokinetic studies, 200 mg/kg of G–A was orally administered to mice. Eight animals were used in each group different times (0, 5, 10, 15, 30, 60, 120, 240, 480, 720, and 1440 min). Pharmacokinetic calculations were performed using the observed data. All data were subsequently processed using PKSolver add-in program for Microsoft Excel written in Visual Basic for Applications. […]
The pharmacokinetic model selection either one or two-comparment, were used both the Akaike information criterion (AIC) and Schwarz criterion (SC). Using the criteria, one may select the model with which to reach a lower value of AIC or SC, which means that the chosen model is more parsimonious (less parameters required) and best fits the data (low error prediction).

[1] = mouse, plasma, one-compartment model, oral 200 mg/kg
[2] = mouse, plasma, plasma, one-compartment model, oral 200 mg/kg
[3] = mouse, plasma, plasma, two-compartment model, oral 200 mg/kg
[4] = mouse, plasma, two-compartment model, oral 200 mg/kg
[5] = plasma, one-compartment model, oral 200 mg/kg
[6] = plasma, two-compartment model, oral 200 mg/kg

With COC(=O)[C@@]12CC[C@]3(C)C([C@H](O)[C@H](O)[C@@]4([C@@H](C)O)COC(=O)C=C[C@H]43)[C@@]1(C)CC[C@@]1(C)CC=C(C)C[C@]12O (stereo partly shown) [G–A, galphimine-A] the “G–A Concentration Plasma” value (5 min after single oral 200 mg/kg, mean ± S.E.M., n = 8, 200 mg/kg) was 2.47 ± 0.43 µg/mL, the AUC(0-inf) [1] was 36200 ng·h/mL and the Cmax [1] was 3330 ng/mL. For the same molecule, the Tmax [1] was 0.436 h, the AUC(0-t) [2] was 32500 ng·h/mL and the CL/F [2] was 92 mL/min/kg. The MRT [2] was 10.5 h, the Vd/F [2] was 57.6 L/kg and the k el (mouse, plasma, plasma, one-compartment model, oral 200 mg/kg, read-out: k10 (apparent first-order elimination rate constant) (converted)) was 2.67e-05 s⁻¹. It also gave a k el (mouse, plasma, plasma, one-compartment model, oral 200 mg/kg, read-out: k10 (elimination rate constant) (converted)) of 2.67e-05 s⁻¹, an AUC(0-t) [3] of 30400 ng·h/mL and a CL/F [3] of 98 mL/min/kg. The MRT [3] was 10.3 h, the Vd/F [3] was 55.5 L/kg and the k el (mouse, plasma, plasma, two-compartment model, oral 200 mg/kg, read-out: k10 (apparent first-order elimination rate constant) (converted)) was 2.83e-05 s⁻¹. It also gave a k el (mouse, plasma, plasma, two-compartment model, oral 200 mg/kg, read-out: k10 (elimination rate constant) (converted)) of 2.83e-05 s⁻¹, an AUC(0-inf) [4] of 33800 ng·h/mL and a Cmax [4] of 3420 ng/mL. The Tmax [4] was 0.456 h, the concentration at 5 min (mouse, plasma, 5 min after single oral 200 mg/kg, mean ± S.E.M., n = 8) was 2470 ng/mL and the concentration at 10 min (mouse, plasma, 10 min after single oral 200 mg/kg, mean ± S.E.M., n = 8) was 2570 ± 520 ng/mL. The concentration at 15 min (mouse, plasma, 15 min after single oral 200 mg/kg, mean ± S.E.M., n = 8) was 2790 ± 790 ng/mL, the concentration at 30 min (mouse, plasma, 30 min after single oral 200 mg/kg, mean ± S.E.M., n = 8) was 3700 ± 700 ng/mL and the concentration at 60 min (mouse, plasma, 60 min after single oral 200 mg/kg, mean ± S.E.M., n = 8) was 3440 ± 350 ng/mL. For the same molecule, the concentration at 120 min (mouse, plasma, 120 min after single oral 200 mg/kg, mean ± S.E.M., n = 8) was 2950 ± 430 ng/mL, the concentration at 240 min (mouse, plasma, 240 min after single oral 200 mg/kg, mean ± S.E.M., n = 8) was 2330 ± 420 ng/mL and the concentration at 480 min (mouse, plasma, 480 min after single oral 200 mg/kg, mean ± S.E.M., n = 8) was 1440 ± 370 ng/mL. For the same molecule, the concentration at 720 min (mouse, plasma, 720 min after single oral 200 mg/kg, mean ± S.E.M., n = 8) was 960 ± 210 ng/mL, the concentration at 1440 min (mouse, plasma, 1440 min after single oral 200 mg/kg, mean ± S.E.M., n = 8) was 310 ± 20 ng/mL and the “Plasma area under the G–A concentration time curve” value (one-compartment model, oral 200 mg/kg) was 2,170 μg·min·mL^−1. For the same molecule, the “Time to detection in plasma after oral administration” value (oral 200 mg/kg) was no more than 5 min, the “A (G–A plasma concentration in central compartment)” value [5] was 3.50 µg/mL and the “ka (apparent first-order absorption rate constant)” value [5] was 0.182 min⁻¹. For the same molecule, the “t1/2ka (absorption half time)” value [5] was 3.79, the “A (G–A plasma concentration in central compartment)” value [6] was 1.83 µg/mL and the “B (G–A plasma concentration in peripheral compartment)” value [6] was 1.82 µg/mL. The “k12 (transfer rate constant central to peripheral compartment)” value [6] was 0.00017 min⁻¹, the “k21 (transfer rate constant peripheral to central compartment)” value [6] was 0.00195 min⁻¹ and the “ka (apparent first-order absorption rate constant)” value [6] was 0.164 min⁻¹. The “t1/2ka (absorption half time)” value [6] was 4.22, the α [6] was 0.0025 min⁻¹ and the β [6] was 0.0014 min⁻¹. For the same molecule, the “Plasma area under the G–A concentration time curve” value (two-compartment model, oral 200 mg/kg) was 2,030 μg·min·mL^−1.
